The values below come from patent US7834187B2, “Crystalline variable hydrate of (S)-6-(4-(2-((3-9H-carbazol-4-yloxy)-2-hydroxypropyl)amino)-2-methylpropyl)phenoxy)-3-pyridinecarbox amide hemisuccinate salt” (Eli Lilly and Company, priority 2004, dated 2010).

Data set [1] is described as follows: Moisture sorption analysis. Particulars: between 10 and 80% relative humidity. It is filed as physicochemical. An excerpt: Various methods, including moisture sorption analysis, Karl Fischer analysis, X-ray powder diffraction (XRD) and ^13C solid-state nuclear magnetic resonance (SSNMR), are used to characterize SAM Classic Hydrate.
The SAM Classic Hydrate crystal structure retains approximately 6-11% water between 10 and 80% relative humidity. The hydrate rapidly equilibrates with the atmosphere, such that the water content observed by analytical techniques is a function of the relative humidity at which the sample was equilabrated.

Data set [2] deals with B3 receptor (Homo sapiens, UniProt P13945). The settings on record: single dose; as described in WO 98/09625; cited from earlier work.
Chain of B3 receptor (P13945 whole entry): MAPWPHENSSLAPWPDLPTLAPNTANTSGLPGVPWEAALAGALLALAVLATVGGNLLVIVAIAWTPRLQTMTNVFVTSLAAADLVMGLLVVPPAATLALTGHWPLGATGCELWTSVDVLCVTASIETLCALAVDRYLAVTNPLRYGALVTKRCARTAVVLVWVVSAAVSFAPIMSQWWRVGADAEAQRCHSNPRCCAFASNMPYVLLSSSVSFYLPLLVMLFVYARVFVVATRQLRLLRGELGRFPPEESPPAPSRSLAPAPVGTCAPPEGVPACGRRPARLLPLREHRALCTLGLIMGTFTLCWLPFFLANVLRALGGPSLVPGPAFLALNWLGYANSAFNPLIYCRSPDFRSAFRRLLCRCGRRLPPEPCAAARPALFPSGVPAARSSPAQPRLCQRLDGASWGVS

For `CC(C)(Cc1ccc(Oc2ccc(C(N)=O)cn2)cc1)NC[C@H](O)COc1cccc2[nH]c3ccccc3c12.CC(C)(Cc1ccc(Oc2ccc(C(N)=O)cn2)cc1)NC[C@H](O)COc1cccc2[nH]c3ccccc3c12.O=C(O)CCC(=O)O` [SAM Classic Hydrate, (S)-(3-pyridinecarboxamide,6-[4-[2-[[3-(9H-carbazol-4-yloxy)-2-hydroxypropyl]amino]-2-methylpropyl]phenoxy])-hemi-succinate salt], the “water retained by the crystal structure (moisture sorption profile)” value in data set [1] is listed as 6-11%.
For the compound `CC(C)(Cc1ccc(Oc2ccc(C(N)=O)cn2)cc1)NC[C@H](O)COc1cccc2[nH]c3ccccc3c12` [SAM Classic free base], the “% of isoproterenol's response” value in data set [2] is reported as “at least 30%”.
